Where two headings read alike, the source gives them in different places. Where a SMILES comes first, the peptide text is derived from it.
Assays:
[1] = degree of sweetness based on sucrose of compounds of differing absolute configuration; settings: for Degree of sweetness based on sucrose: Table 2
Procedure: Compounds of absolute configurations (a) and (b) of (RS,RS) and (S,S) were prepared by way of trial, and the degrees and characteristics of sweetness thereof were evaluated.

[2] = degree of sweetness of L-aspartyl fenchyl amino alcohols by absolute configuration at (a) and (b); settings: for Degree of sweetness: R1 methyl, R2 fenchyl, absolute configuration (a),(b)
Procedure: Subsequent studies by the inventors have disclosed that the sweetness essentially depends on the absolute configuration at the (a) and (b) positions in the following formula (i). For example, compounds of the following general formula: [drawing 1]
wherein R1 is methyl group while R2 is fenchyl group:
The absolute configurations at the (a) and (b) positions are determined by resolving amino alcohol derivatives with tartaric acid to thereby give p-bromobenzoic acid amide derivatives of the following formula (ii) and then analyzing the crystal structures thereof with X-rays: [drawing 2]

[3] = sweetness characteristics in standard cola beverage, nine panelists; settings: cola beverage stored at 37° C. for 26 days, 1 extremely poor to 9 extremely excellent, sweetener at 30 to 520 ppm
Procedure: The sweetness characteristics were evaluated in the following manner.
A standard beverage was prepared by adding the following materials to 1600 ml of carbonated water:
Various sweeteners were added to the standard beverage each at a definite concentration. The beverages thus obtained were stored at 37° C. for 26 days and then evaluated by nine panelists according to the following criterion.

[4] = among dipeptide esters known so far; cited from earlier work
[5] = versus APM; cited from earlier work
[6] = taste intensity threshold value by a limit method, panel of five skilled flavorists; settings: for Taste intensity threshold value: dissolved in water, limit method, five skilled flavorists; for Degree of sweetness: sucrose = 1, from Table 1
Procedure: Each of (2R,3R)-3-N-(L-aspartyl)amino-1-2-butanol (XVI') obtained in Example 2, 2-8), which will be referred to as "compound A" hereinafter, the (2R,3R)-3-N-(L-aspartyl)amino-1-2-butanol (XVII) obtained in Example 1, 1-15), which will be referred to as "compound B" hereinafter, APM and sucrose was dissolved in water. The threshold value of each compound was determined by a limit method by a panel consisting of five skilled flavorists.

[7] = stability of aqueous solution (percent remaining by HPLC, 0.1M phosphate buffer pH 4.0, 80° C.); type: physicochemical; settings: general statement
Procedure: Each of compounds A and B, APM and L-aspartyl-DL-aminomalonic acid methyl fenchyl ester as disclosed in JP-A-49-30566, which will be abbreviated as "AMF" hereinafter, was dissolved in a 0.1M phosphate buffer solution (pH 4.0) at a concentration of 0.2%. The obtained solution was maintained at 80° C. and the percent remaining was monitored by high performance liquid chromatography with a lapse of time to thereby compare the stabilities of these solutions with each other.

[8] = sweetness characteristics of diluted aqueous solution
[9] = solubility in water; type: physicochemical

With `CC(NC(=O)[C@@H](N)CC(=O)O)C(O)C[C@@H]1C(C)(C)[C@@H]2CC[C@@]1(C)C2` (stereo partly drawn) [C, 3-N-(L-aspartyl)-amino-1-d-α-fenchyl-2-butanol] the “Degree of sweetness based on sucrose” value [1] was 1,800 time, the Degree of sweetness [2] was 1,800 and the Average score [3] was 4.1.

In the case of `COC(=O)C(NC(=O)[C@@H](N)CC(=O)O)C(=O)OC1C2(C)CCC(C2)C1(C)C` (mixture of isomers) [AMF, L-aspartyl-DL-aminomalonic acid methyl fenchyl ester], the “degree of sweetness, in words” value [4] is listed as “highest degree of sweetness” and the “stability at 80° C. and at a pH of 4” value [5] is listed as “inferior to APM in stability at 80 °C and at a pH of 4”.

In the case of `COC(=O)[C@H](Cc1ccccc1)NC(=O)[C@@H](N)CC(=O)O` [APM, L-aspartyl-L-phenylalanine methyl ester, reference compound] (H-Asp-Phe-OMe), the “Degree of sweetness based on sucrose” value [1] is reported as 250 time, the “Taste intensity threshold value” [6] is reported as 0.004% and the Degree of sweetness [6] is reported as 150 time. The Average score [3] was 5.8.

For `CC1C2CCC(C2)C1C[C@@H](O)[C@@H](C)NC(=O)[C@@H](N)CC(=O)O` (stereo partly drawn) [(2R,3R)-3-N-(L-aspartyl)amino-1-(3-methyl-2-norbornyl)-2-butanol], the heat stability [7] was “good in heat stability”, the “stability in acidic aqueous solutions” value [7] was “excellent in stability in acidic aqueous solutions” and the “disagreeable tastes (bitter taste, bad taste, unpleasant aftertaste)” value [8] was “almost no disagreeable tastes”. For the same compound, the sweetness characteristics [8] was “closely similar to those of sucrose” and the solubility in water [9] was “highly soluble in water”.

With `CC(NC(=O)[C@@H](N)CC(=O)O)C(O)C[C@@H]1C[C@@H]2CC[C@@]1(C)C2` (stereo partly shown) the “Degree of sweetness based on sucrose” value [1] was 800 time and the Average score [3] was 5.1.

In the case of `C[C@@H](NC(=O)[C@@H](N)CC(=O)O)[C@H](O)CC1CC2CCC1(C)C2` (stereo partly drawn) [(2R,3R)-3-N-(L-aspartyl)amino-1-(1-methyl-2-norbornyl)-2-butanol], the heat stability [7] is reported as “good in heat stability”, the “stability in acidic aqueous solutions” value [7] is reported as “excellent in stability in acidic aqueous solutions” and the “disagreeable tastes (bitter taste, bad taste, unpleasant aftertaste)” value [8] is reported as “almost no disagreeable tastes”. For the same compound, the sweetness characteristics [8] was “closely similar to those of sucrose” and the solubility in water [9] was “highly soluble in water”.

In the case of `C[C@@H](NC(=O)[C@@H](N)CC(=O)O)[C@@H](O)CC1C2(C)CCC(C2)C1(C)C` (stereo partly drawn) [(R,S)], the “degree of sweetness, in words” value [2] is reported as “scarcely any sweetness” and the Degree of sweetness [2] is reported as 0.

In the case of `C[C@@H](NC(=O)[C@@H](N)CC(=O)O)[C@H](O)C[C@@H]1C[C@@H]2CC[C@@]1(C)C2` [Compound B, (2R,3R)-3-N-(L-aspartyl)amino-1-2-butanol], the “Degree of sweetness based on sucrose” value [1] is reported as 3,300 time, the “Taste intensity threshold value” [6] is reported as 0.00018% and the Degree of sweetness [6] is reported as 3,300 time. The Average score [3] was 6.3.

With `C[C@H](NC(=O)[C@@H](N)CC(=O)O)[C@@H](O)CC1C2(C)CCC(C2)C1(C)C` (stereo partly drawn) [(S,S)] the “degree of sweetness, in words” value [2] was “scarcely any sweetness” and the Degree of sweetness [2] was 0.

In the case of `C[C@@H]1[C@H]2CC[C@H](C2)[C@H]1C[C@@H](O)[C@@H](C)NC(=O)[C@@H](N)CC(=O)O` [Compound A, (2R,3R)-3-N-(L-aspartyl)amino-1-2-butanol], the “Degree of sweetness based on sucrose” value [1] is reported as 2,500 time, the “Taste intensity threshold value” [6] is reported as 0.00024% and the Degree of sweetness [6] is reported as 2,500 time. For the same compound, the Average score [3] was 6.2.

For `CC(NC(=O)[C@@H](N)CC(=O)O)C(O)C[C@@H]1[C@@H]2CC[C@@H](C2)[C@H]1C` (stereo partly shown), the “Degree of sweetness based on sucrose” value [1] was 850 time and the Average score [3] was 5.0.

For `OC[C@H]1O[C@@](CO)(O[C@H]2O[C@H](CO)[C@@H](O)[C@H](O)[C@H]2O)[C@@H](O)[C@@H]1O` [Sucrose, sucrose, reference compound], the “Taste intensity threshold value” [6] was 0.6% and the Degree of sweetness [6] was 1 time.

For `C[C@H](NC(=O)[C@@H](N)CC(=O)O)[C@H](O)CC1C2(C)CCC(C2)C1(C)C` (stereo partly drawn) [(S,R)], the “degree of sweetness, in words” value [2] was “scarcely any sweetness” and the Degree of sweetness [2] was 0.

With `C[C@@H](NC(=O)[C@@H](N)CC(=O)O)[C@H](O)CC1C2(C)CCC(C2)C1(C)C` (stereo partly drawn) [(R,R)] the “degree of sweetness, in words” value [2] was “highest degree of sweetness” and the Degree of sweetness [2] was 12,500.

With `C[C@@H]1[C@H]2CC[C@H](C2)[C@H]1C[C@H](O)[C@H](C)NC(=O)[C@@H](N)CC(=O)O` [(2S, 3S)-3-N-(L-aspartyl)amino-1-2-butanol] the “sweetness, in words” value [1] was “scarcely any sweetness” and the “Degree of sweetness based on sucrose” value [1] was 0 time.

Reference: patent US5463118A, “N-(l-aspartyl)amino alcohol derivative and sweetener containing the same” (Takasago International Corporation, priority 1987, dated 1995)
